The values that follow come from ChEMBL document CHEMBL1150004, “A general approach toward the design of mechanism-based inactivators of serine proteinases: inactivation of human leukocyte elastase by a phthalimide derivative” (Bioorg Med Chem Lett, 1993).

The target in the assay is T1, Neutrophil elastase (Homo sapiens) (UniProt P08246).
T1 sequence (whole entry): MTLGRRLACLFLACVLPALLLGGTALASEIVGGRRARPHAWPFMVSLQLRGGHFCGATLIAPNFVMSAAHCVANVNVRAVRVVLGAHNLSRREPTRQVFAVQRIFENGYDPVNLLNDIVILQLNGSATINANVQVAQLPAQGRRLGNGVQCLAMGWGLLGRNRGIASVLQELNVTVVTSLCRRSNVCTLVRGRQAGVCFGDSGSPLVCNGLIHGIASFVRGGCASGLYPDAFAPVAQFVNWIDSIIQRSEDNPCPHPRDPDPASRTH
Nature of the assay: Bimolecular rate constant of the interaction of compound with Human Leukocyte Elastase was evaluated.

`CCOC(=O)C(F)N1C(=O)c2ccccc2C1=O` (stereo unspecified): the K obs / 1 is 40 M⁻¹ s⁻¹.
